How the values were obtained:
[1] = system: USP mRNA level in nTreg and iTreg cells; test: In vitro inhibitor assays, USP mRNA level in Treg cells; format: cell-based; conditions: 24 hours
Method: FIG. 3: Usp22 and Usp21 are required for FOXP3 stability in nTreg cells under environmental and metabolic stress found in the TME. All mRNA values calculated relative to unchallenged WT Treg cells. A, nTreg USP mRNA level in normoxic (21% O2) verses hypoxic (1% O2) conditions after 24 hours (n=6-13). B, FOXP3 MFI change in 22KO nTreg cells relative to WT nTreg cells after 72 hours in normoxic (21% O2) verses hypoxic (1% O2) conditions (n=5). C, nTreg USP mRNA level after treatment with dMOG for 24 hours (n=6). D, USP mRNA level in nTreg cells after exposure to glucose-restricted (0.5 mM) conditions after 24 hours relative to normal media (11 mM glucose) (n=7-18). E, Relative FOXP3 MFI change in nTreg cells from control and cells cultured under low glucose conditions after 48 hours (n=3). F, nTreg USP mRNA level under amino acid starvation for 24 hours (n=5-9). […]
Along with the competition for glucose, a scarcity of amino acids within tumors may also alter immune cell function (35). […] So, we treated Treg cells with an inhibitor of mitochondrial ATP synthase, Oligomycin A, and measured USP mRNA levels.
All nTreg and iTreg cells were plated as described above DMOG (Sigma Catalog #D3695) was administered to the cells in relevant experiments at 1 mM for 24 hours. […] FOXP3 protein level was assessed via flow cytometry following 48 hours of treatment of inhibitors described above. […]

[2] = system: Usp22 and Usp21 expression in iTreg cells; test: In vitro iTreg cell TGF-β assay, USP mRNA level; format: cell-based; conditions: TGF-β added, inhibitor 25 μg/mL
Description: FIG. 8: TGF-β induces expression of Usp22 and Usp21 in Treg cells. A, Visual representation of Tumor Conditioned Media (TCM) experiments. B, iTreg USP mRNA level under TGF-β induction post-polarization. Usp22: n=18-19; Usp21: n=7-8; Usp7: 4-5. C, iTreg USP mRNA level under TGF-β with and without a TGF-β inhibitor. Usp22: n=3-11; Usp21: n=8-18; Usp7: 3-8. D, Treg FoxP3 mRNA level with TGF-β induction (n=10). B-D, All mRNA values calculated relative to WT untreated iTreg cells. E, TGF-β level in B16, LLC1 and EG7 tumor conditioned media (n=3). F-H, Correlation between USP induction and TGF-β level in the tumor conditioned media. Usp22: n=3-10; Usp21: n=3-8; Usp7: n=3-6. I, TGF-β mRNA level of control or TGF-β shRNA treated B16 cells (n=3). J, mRNA level of Usp22 in sorted itTreg cells from mice injected with shRNA treated B 16 cells (n=4). B, D, and I, Two-tailed unpaired t-test was performed to determine statistical significance. C and E Ordinary one-way Anova with multiple comparisons between groups was performed to determine statistical significance. All data are presented as mean±stdev. NS, not significant. *P<0.05, **P<0.01, ***P<0.001, ****P<0.0001.
Many types of tumors secrete large amounts of TGF-β, which dampens immune responses and promotes metastasis (21, 22). […]

With `CC[C@H]1/C=C/C=C/C[C@@H](C)[C@H](O)[C@@](C)(O)C(=O)[C@@H](C)[C@H](O)[C@@H](C)C(=O)[C@@H](C)[C@H](O)[C@@H](C)/C=C/C(=O)O[C@@H]2[C@H](C)[C@H](CC1)O[C@]1(CC[C@H](C)[C@H](C[C@@H](C)O)O1)[C@H]2C` [Oligomycin A] the “USP mRNA level” value ([1]; nTreg cells, 1 μM) was “increased both Usp22 and Usp21, but not Usp7”.
In the case of `COC(=O)CNC(=O)C(=O)OC` [dMOG, dimethyloxalylglycine], the “Usp22 mRNA level” value ([1]; nTreg and iTreg cells, 1 mM) was “increased Usp22 mRNA level”.
In the case of `CC(C)(O)c1cc(Nc2cc(Oc3cn(C4CC4)nc3C3CCOCC3)ccn2)ccn1` [LY 3200882], the “TGF-β-induced increase of Usp22 and Usp21 expression” value [2] was “largely diminished”.
